Usually inhibition stands for the relative decrease from the control value, in per cent. As a reminder, the pIC50 is −log10 of the IC50, conventionally taken in molar units.

This is an account of results in PMC6508677, “Identification of druggable small molecule antagonists of the Plasmodium falciparum hexose transporter PfHT and assessment of ligand access to the glucose permeation pathway via FLAG-mediated protein engineering” (PLoS ONE, 2019).

This assay deals with T1, PfHT (Plasmodium falciparum, UniProt Q7KWJ5).
T1 sequence (Q7KWJ5 1-504): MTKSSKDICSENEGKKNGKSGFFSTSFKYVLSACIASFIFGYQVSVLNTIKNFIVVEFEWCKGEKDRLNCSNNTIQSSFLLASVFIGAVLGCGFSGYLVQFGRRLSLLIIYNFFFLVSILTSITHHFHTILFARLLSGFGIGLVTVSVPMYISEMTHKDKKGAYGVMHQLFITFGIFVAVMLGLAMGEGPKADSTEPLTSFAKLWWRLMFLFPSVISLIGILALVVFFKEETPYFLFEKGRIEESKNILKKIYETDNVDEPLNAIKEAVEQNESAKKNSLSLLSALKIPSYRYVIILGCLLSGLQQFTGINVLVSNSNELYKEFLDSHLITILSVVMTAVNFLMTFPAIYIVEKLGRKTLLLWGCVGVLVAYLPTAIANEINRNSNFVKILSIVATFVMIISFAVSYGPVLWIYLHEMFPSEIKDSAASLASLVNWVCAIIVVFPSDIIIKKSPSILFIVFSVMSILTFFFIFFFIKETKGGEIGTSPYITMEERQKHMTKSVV
The assay is described as follows: 2-DG uptake by HEK293 cells overexpressing PfHT. The assay is classed as cell-based. The arrangement: expressed in transfected cells; host or cells: HEK293 (HEK293-FLIP, native hGLUT1 knocked down by shRNA). As to conditions: for remaining activity at 0.001 µM: 0.001 µM compound; for remaining activity at 0.3125 µM: 0.3125 µM compound (0.313 in Fig 1 sheet for WU-1); for remaining activity at 0.625 µM: 0.625 µM compound; for remaining activity at 1.25 µM: 1.25 µM compound; for remaining activity at 2.5 µM: 2.5 µM compound; for remaining activity at 5 µM: 5 µM compound; for remaining activity at 10 µM: 10 µM compound; for remaining activity at 20 µM: 20 µM compound; for remaining activity at 40 µM: 40 µM compound; for pIC50: IC50 for inhibition of 2-DG uptake; for remaining activity at 80 µM: 80 µM compound; for remaining activity at 160 µM: 160 µM compound; for remaining activity at 225 µM: 225 µM compound. The source says:
Generation of HEK293 cells overexpressing PfHT and human GLUTs 1–4 were described elsewhere. Briefly, HEK293 cells were transfected with pcDNA3.1 FLII12Pglu-7006 (Addgene), containing the fluorescence resonance energy transfer (FRET) glucose sensor (HEK293-FLIP) and PfHT, human GLUT1 (hGLUT1), hGLUT2, hGLUT3, hGLUT4, hGLUT5 or hGLUT8 using Optifect (Life Technologies) according to manufacturer’s specifications. To increase retention of GLUT8 at the plasma membrane, the dileucine sorting signal E^7E^8XXXLL was modified to R^7R^8XXXLL as described in [17]. Stable transfectants were selected for G418 and hygromycin resistance to select for FRET sensor and hexose transporter, respectively. HEK293-FLIP cells were also used to generate cells stably transfected with FLAG-tagged PfHT (FTPfHT). FLAG tag ([…]) followed by a triple glycine linker and a tobacco etch virus (TEV) protease site (ENLYFQS) followed by a triple glycine linker was added to the N-terminus of PfHT via PCR [18] using Phusion Hot Start II High-Fidelity DNA Polymerase (Fisher Scientific). Single clones were selected by comparing their abilities to transport glucose as assayed via FRET and radiolabeled hexose uptake. In all cell lines, except for HEK293 cells overexpressing hGLUT1 and hGLUT5, native hGLUT1 was knocked down using shRNA as described elsewhere. Transcript levels of the individual GLUTs expressed in each cell line are as described in [13, 15] and in S1 Fig.
Glucose uptake by P. falciparum was performed essentially as described. P. falciparum strain 3D7 was cultured in 100 mm tissue culture dishes (Techno Plastic Products) in a 2% suspension of human erythrocytes and RPMI 1640 medium until reaching > 7.5% parasitemia. Cells were pelleted via centrifugation and resuspended in RPMI 1640 medium. To determine the uptake of radiolabeled glucose into the parasite, parasites were isolated from infected erythrocytes by permeablization with saponin (0.05 w/v), followed by centrifugation, aspiration of supernatant and washing of the pellet 3X with saline solution (135 mM NaCl, 2 mM KCl, 25 mM HEPES, 0.2 mM glucose and 1 mM MgCl2; pH 7.1) to remove cellular debris. WU-1 or DMSO vehicle were added to 100 μl parasites (resuspended in saline) 5 min prior to the addition of 100 μl [^14C]2-DOG (0.2- μCi/ml final concentration). 2-DG uptake was stopped after 2 min by layering the entire reaction over 300 μl of an oil mixture (5:4 mix of dibutyl phthalate / dinonyl phthalate) in Eppendorf tubes and centrifuged at 15,850 × g for 2 mins. The ratio of the estimated intracellular concentration of radiolabel relative to the extracellular concentration were calculated as described. Uptake of radiolabeled hexose into HEK293 cells was measured in glucose-free HBSS as described previously. Briefly, cells were plated at 400,000 cells/well overnight at 37°C in 24-well plates pre-treated with PEI. After 30-min incubation at 37°C in glucose-free HBSS in the presence of vehicle or increasing concentrations of compound, 2-DG uptake was measured in glucose-free HBSS for 4 min at 37°C. Cultures were washed in ice-cold 1X PBS and lysed in 0.1% Triton X-100 in 1X PBS. Radiolabeled hexose uptake was determined by liquid scintillation counting (Ultima Gold, Thermo Fisher) and normalized to total protein per well. Uptake data are plotted as percent uptake relative to vehicle-treated cells. Kinetic analyses were performed using the indicated concentrations of substrate and WU-1, with quenching of uptake after 1 min incubation. Incubation times had been previously determined as being in the linear range of time-dependent radiolabeled hexose uptake (2 min for 2-DG uptake into freed parasites; 2 and 4 min for D-Frc and 2-DG uptake HEK cell lines, respectively). Data were fit by least squares nonlinear regression analysis using GraphPad Prism 6.0 software.

Setting [1] is: HEK293, 4 min, read-out: 2-DG uptake (percent uptake relative to vehicle), AVE, PfHT.
Where [2] appears, read: HEK293, 4 min, read-out: % Inhibition of 2-DG uptake vs vehicle.
Where [3] appears, read: HEK293 cells overexpressing PfHT, mean/reported value.

pIC50: −log10 of the molar value. Several values for one entry are separate records, joined by “and”; a condition that tells them apart may be missing. Equal entries are not always repeated.

As for `COc1c(Br)cc([N+](=O)[O-])c(OC)c1C(=O)NC(=O)Nc1c(C)cccc1Cl` [WU-2, 3-(3-bromo-2,6-dimethoxy-5-nitrobenzoyl)-1-(2-chloro-6-methylphenyl)urea], the “Maximum Inhibition (%)” value (2-DG uptake, PfHT cell line) stood at 84.4%. Moreover, under setting [1], the remaining activity at 0.001 µM was 97.7%, the remaining activity at 0.3125 µM is 85%, the remaining activity at 0.625 µM is 75.7% and the remaining activity at 1.25 µM was 68.5%. Under setting [1], the remaining activity at 2.5 µM worked out at 62.4%, the remaining activity at 5 µM worked out at 50.6%, the remaining activity at 10 µM came to 39.9% and the remaining activity at 20 µM was 26.3%. Under setting [1], the remaining activity at 40 µM amounted to 17.3%. For the same compound, for the setting “HEK293, 4 min, read-out: 2-DG uptake (percent uptake relative to vehicle), AVE, PfHT, 0.09375 µM compound”, the remaining activity at 0.09375 µM was 96%. Further, the remaining activity at 0.1875 µM (HEK293, 4 min, read-out: 2-DG uptake (percent uptake relative to vehicle), AVE, PfHT, 0.1875 µM compound) is 93.9%. In addition, the remaining activity at 0.375 µM (HEK293, 4 min, read-out: 2-DG uptake (percent uptake relative to vehicle), AVE, PfHT, 0.375 µM compound) stood at 79.7%. Besides, under setting [2], the inhibition at 5 µM came to 47.9%. Besides, the pIC50 under setting [3] is 5.38. Also, the pIC50 (individual experiments, HEK293 PfHT, Expt 1-3) is 5.52 and 5.42 and 5.25.

On to `COc1cc(/C=N/NC(=O)c2cc(-c3ccccc3)sc2N)cc(OC)c1OC` [WU-3, 2-amino-5-phenyl-N'-[(E)-(3,4,5-trimethoxyphenyl)methylidene]thiophene-3-carbohydrazide], for which, under setting [1], the remaining activity at 0.001 µM turned out to be 100%, the remaining activity at 0.3125 µM came out at 109%, the remaining activity at 0.625 µM is 104% and the remaining activity at 1.25 µM came to 103%. For the same compound, under setting [1], the remaining activity at 2.5 µM is 104%, the remaining activity at 5 µM was 87.6%, the remaining activity at 10 µM came to 62% and the remaining activity at 20 µM was 42.7%. In addition, under setting [1], the remaining activity at 40 µM came out at 42.2%, the remaining activity at 80 µM amounted to 37.1%, the remaining activity at 160 µM is 31.1% and the remaining activity at 225 µM stood at 18.9%. In addition, the inhibition at 10 µM under setting [2] worked out at 51.8%. Under setting [3], this compound had a negative logarithm of the IC50 (pIC50) of 5.04.

On to `COc1cc(/C=C2\COC/C(=C\c3cc(OC)c(OC)c(OC)c3)C2=O)cc(OC)c1OC` [WU-5, (3E,5E)-3,5-bis[(3,4,5-trimethoxyphenyl)methylidene]oxan-4-one], for which, under setting [1], the remaining activity at 0.001 µM was 100%, the remaining activity at 0.3125 µM came to 92.8%, the remaining activity at 0.625 µM stood at 89.8% and the remaining activity at 1.25 µM stood at 72.2%. Further, under setting [1], the remaining activity at 2.5 µM is 61.4%, the remaining activity at 5 µM came out at 48.9%, the remaining activity at 10 µM amounted to 32% and the remaining activity at 20 µM was determined as 30.9%. Further, under setting [1], the remaining activity at 80 µM worked out at 32.8%, the remaining activity at 160 µM worked out at 34.5% and the remaining activity at 225 µM was 35.8%. Further, the inhibition at 2.5 µM under setting [2] was 47%. The same compound gave a pIC50 under setting [3] of 5.72.
